The source of these data is patent US20170291890A1 (Epizyme, Inc., priority 2014, published 2017).

This assay addresses T1, KDM4A (Homo sapiens, UniProt O75164).
T1 construct: N-terminal His-tagged KDM4A^1-350 was purchased from BPS Biosciences; His (N); purchased BPS Biosciences
T1 sequence (O75164 1-350): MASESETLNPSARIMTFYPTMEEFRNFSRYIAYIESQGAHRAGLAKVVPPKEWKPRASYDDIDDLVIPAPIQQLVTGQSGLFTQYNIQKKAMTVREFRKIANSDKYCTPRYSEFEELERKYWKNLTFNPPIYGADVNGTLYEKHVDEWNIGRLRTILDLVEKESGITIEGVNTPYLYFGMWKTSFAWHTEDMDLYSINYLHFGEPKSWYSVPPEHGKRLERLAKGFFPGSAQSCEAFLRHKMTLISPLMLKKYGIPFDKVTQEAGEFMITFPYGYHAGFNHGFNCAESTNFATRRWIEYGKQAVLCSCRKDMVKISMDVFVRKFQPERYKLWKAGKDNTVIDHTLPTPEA
The assay can be described thus: KDM4A Assay (SAMDI mass spectrometry demethylase assay). Type of assay: biochemical. As to conditions: N-terminal His-tagged KDM4A 1-350; class symbols; read-out: 4A IC50. As to the method: N-terminal His-tagged KDM4A^1-350 was purchased from BPS Biosciences. Peptides were synthesized by BioPeptide and all other reagents were purchased from Sigma-Aldrich at the highest level of purity possible. Assays were performed in a 50 μL volume in 384-well V-bottom polypropylene microplates (Greiner) at 25° C. Optimized 1× assay buffer was 50 mM HEPES (pH=8.0), 100 μM sodium ascorbate, 20 mM NaCl, 10 μM ammonium iron sulfate, 1 mM tris(2-carboxyethyl)phosphine (TCEP), 0.002% Tween-20, and 0.005% BSG. For compound screening, 35 μL of KDM4A^1-350 (final concentration, f.c.=5 nM) was added using a Multidrop Combi and preincubated with 1 μL of test compound (f.c.=10 μM) for 30 minutes and subsequently 15 μL of peptide with the following sequence NH2-ARTKQTAR(Kme2)STGGKAPRKQLA(K-Ahx-Biotin)-amide (f.c.=600 nM) and 2-oxoglutarate (f.c.=5 μM) was added by Multidrop Combi to begin the reaction. Reactions proceeded for 120 minutes and were stopped by the addition of 5 μL of formic acid (f.c.=0.5%) using a Multidrop Combi and then analyzed by SAMDI Tech Inc.
SAMDI Tech analyzed all reactions using self-assembled monoloayer desorption/ionization technology as previously described (Gerard-Levin Z A, Scholle M D, Eisenberg A H, et al.: High-throughput screening of small molecule libraries using SAMDI mass spectrometry. ACS Comb Sci 2011; 13:347-350). Briefly, a 2 μL sample of the stopped demethylase reactions were transferred to a SAMDI array coated with 384 biotin-neutravidin spots using a 384-channel pipet station. The SAMDI arrays were incubated for 1 h in a humidified chamber, followed by washing of the surface with deionized ultra-filtered water (DIUF) and drying under nitrogen. A matrix of 30 mg/ml 2′,4′,6′-Trihydroxyacetophenone monohydrate (THAP) in acetone was applied using a TPP Mosquito 1.2 μL tip by dispensing 50 nL on each of the 384 spots on the array. SAMDI-MS was run using acquisition method ReflectorPositiveUTX. The % conversion of substrate to product was calculated using the AUC of the substrate and product peptide peaks.
An IC50 value was determined by contacting various concentrations of a test compound with one of the KDM4A, KDM4C or KDMSC enzyme constructs and plotting a dose-response curve which associates the amount of inhibition of the enzyme relative to the concentration of the test compound. From the curve, the IC50 value (which represents the concentration of the test compound necessary to inhibit maximal enzymatic activity by 50%) was determined. Additionally, the slope of the linear range of the plotted curve, which indicates the speed with which the curve rises between the minimum and maximum, was calculated.
Regarding `CN(C)CCn1ncc(-c2ccccc2)c1Nc1cnccc1C(=O)O` [Compound 65, 3-((1-(2-(dimethylamino)ethyl)-4-phenyl-1H-pyrazol-5-yl)amino)isonicotinic acid], the IC50 lay within 1000 to 10000 nM.
In the case of `Cc1c(-c2ccccc2)nn(CCN2CCC(F)(F)CC2)c1Nc1cnccc1C(=O)O` [Compound 66, 3-((1-(2-(4,4-difluoropiperidin-1-yl)ethyl)-4-methyl-3-phenyl-1H-pyrazol-5-yl)amino)isonicotinic acid] it was 10000 to 100000 nM.
The value for `Cc1c(Nc2cnccc2C(=O)O)nn(CCN2CCC(F)(F)CC2)c1-c1ccccc1` [Compound 67, 3-((1-(2-(4,4-difluoropiperidin-1-yl)ethyl)-4-methyl-5-phenyl-1H-pyrazol-3-yl)amino)isonicotinic acid] was 1 to 100 nM; that for `Cc1c(Nc2cnccc2C(=O)O)cnn1C1CCNCC1` [Compound 68, 3-((5-methyl-1-(piperidin-4-yl)-1H-pyrazol-4-yl)amino)isonicotinic acid] was 100 to 1000 nM.
In the case of `Cc1nn(C2CCNCC2)cc1Nc1cnccc1C(=O)O` [Compound 69, 3-((3-methyl-1-(piperidin-4-yl)-1H-pyrazol-4-yl)amino) isonicotinic acid] it was 100 to 1000 nM.
For `Cc1nn(-c2ccccc2C#N)cc1Nc1cnccc1C(=O)O` [Compound 70, 3-((1-(2-cyanophenyl)-3-methyl-1H-pyrazol-4-yl)amino) isonicotinic acid], the IC50 was in the range of 100 to 1000 nM.
The value for `Cc1cn(-c2ccccc2C#N)nc1Nc1cnccc1C(=O)O` [Compound 71, 3-((1-(2-cyanophenyl)-4-methyl-1H-pyrazol-3-yl)amino) isonicotinic acid] was 100 to 1000 nM.
In the case of `O=C(O)c1ccncc1Nc1nn(C2CCOCC2)cc1-c1ccccc1` [Compound 72, 3-((4-phenyl-1-(tetrahydro-2H-pyran-4-yl)-1H-pyrazol-3-yl)amino)isonicotinic acid] it was 1000 to 10000 nM; in that of `O=C(O)c1ccncc1Nc1nn(CCC(F)(F)F)cc1-c1ccccc1` [Compound 73, 3-((4-phenyl-1-(3,3,3-trifluoropropyl)-1H-pyrazol-3-yl)amino) isonicotinic acid], 100 to 1000 nM.
`O=C(O)c1ccncc1Nc1nn(CCC(F)(F)F)cc1-c1ccncc1` [Compound 74, 3-((4-(pyridin-4-yl)-1-(3,3,3-trifluoropropyl)-1H-pyrazol-3-yl)amino)isonicotinic acid]: the IC50 is 100 to 1000 nM.
With `COc1ccc(-n2nc(C)c(Nc3cnccc3C(=O)O)c2C)cc1` [Compound 75, 3-((1-(4-methoxyphenyl)-3,5-dimethyl-1H-pyrazol-4-yl)amino)isonicotinic acid], the IC50 lay within 100 to 1000 nM.
As for `Cc1nn(-c2ccc(O)cc2)c(C)c1Nc1cnccc1C(=O)O` [Compound 76, 3-((1-(4-hydroxyphenyl)-3,5-dimethyl-1H-pyrazol-4-yl)amino)isonicotinic acid], the IC50 fell in the range of 100 to 1000 nM.
As for `Cc1nn(-c2ccccc2)c(C)c1Nc1cnccc1C(=O)O` [Compound 77, 3-((3,5-dimethyl-1-phenyl-1H-pyrazol-4-yl)amino)isonicotinic acid], the IC50 lay in the range of 1 to 100 nM.
For the compound `Cc1cc(Nc2cnccc2C(=O)O)n(C2CCOCC2)n1` [Compound 78, 3-((3-methyl-1-(tetrahydro-2H-pyran-4-yl)-1H-pyrazol-5-yl)amino) isonicotinic acid], the IC50 was in the range of 100 to 1000 nM.
As for `Cc1c(Nc2cnccc2C(=O)O)cnn1[C@H]1CC[C@@H](N)CC1` [Compound 79, 3-((1-((cis)-4-aminocyclohexyl)-5-methyl-1H-pyrazol-4-yl)amino)isonicotinic acid], the IC50 fell in the range of 1 to 100 nM.
The value for `Cc1c(Nc2cnccc2C(=O)O)cnn1C1CCN(C2CCC2)CC1` [Compound 96] was 1 to 100 nM; that for `Cc1nn(C2CCN(C(=O)c3ccccc3)CC2)cc1Nc1cnccc1C(=O)O` [Compound 97, 3-(1-(1-benzoylpiperidin-4-yl)-3-methyl-1H-pyrazol-4-ylamino) isonicotinic acid] was 1000 to 10000 nM.
In the case of `Cc1c(Nc2cnccc2C(=O)O)cnn1C1CCN(C(=O)c2ccccc2)CC1` [Compound 98, 3-(1-(1-benzoylpiperidin-4-yl)-5-methyl-1H-pyrazol-4-ylamino) isonicotinic acid] it was 100 to 1000 nM; in that of `Cc1nn(C2CCN(CC(F)(F)F)CC2)cc1Nc1cnccc1C(=O)O` [Compound 99, 3-(3-methyl-1-(1-(2,2,2-trifluoroethyl)piperidin-4-yl)-1H-pyrazol-4-ylamino)isonicotinic acid], 100 to 1000 nM; in that of `Cc1c(Nc2cnccc2C(=O)O)cnn1C1CCN(CC(F)(F)F)CC1` [Compound 100, 3-(5-methyl-1-(1-(2,2,2-tri-fluoro-ethyl)piperidin-4-yl)-1H-pyrazol-4-ylamino)isonicotinic acid], 100 to 1000 nM.
As for `COC(=O)c1ccncc1Nc1cn(C2CCN(C(C)C)CC2)nc1C` [Compound 101, methyl 3-((1-(1-isopropylpiperidin-4-yl)-3-methyl-1H-pyrazol-4-yl)amino)isonicotinate], the IC50 lay in the range of 10000 to 100000 nM.
The value for `Cc1nn(C2CCN(C(C)C)CC2)cc1Nc1cnccc1C(=O)O` [Compound 102, 3-((1-(1-isopropylpiperidin-4-yl)-3-methyl-1H-pyrazol-4-yl)amino)isonicotinic acid] was 100 to 1000 nM.
The value for `COC(=O)c1ccncc1Nc1cnn(C2CCN(C(C)C)CC2)c1C` [Compound 103, methyl 3-((1-(1-isopropylpiperidin-4-yl)-5-methyl-1H-pyrazol-4-yl)amino)isonicotinate] was 10000 to 100000 nM; that for `Cc1c(Nc2cnccc2C(=O)O)cnn1C1CCN(C(C)C)CC1` [Compound 104] was 100 to 1000 nM.
Turning to `Cc1nn(CCN(C)C)cc1Nc1cnccc1C(=O)O` [Compound 107, 3-(1-(2-(dimethylamino)ethyl)-3-methyl-1H-pyrazol-4-ylamino) isonicotinic acid], the IC50 lay in the range of 100 to 1000 nM.
The value for `Cc1nn(C2CCCN(C)CC2)cc1Nc1cnccc1C(=O)O` (stereo not drawn) [Compound 111, 3-(3-methyl-1-(1-methylazepan-4-yl)-1H-pyrazol-4-ylamino) isonicotinic acid] was 100 to 1000 nM.
As to `Cc1c(Nc2cnccc2C(=O)O)cnn1C1CCCN(C)CC1` (stereo not drawn) [Compound 112, 3-((5-methyl-1-(1-methylazepan-4-yl)-1H-pyrazol-4-yl)amino)isonicotinic acid], the IC50 was in the range of 100 to 1000 nM.

A word on the IC50: it is the concentration that inhibits the measured activity by half.
